Values quoted from earlier work, collected in patent US20120177729A1, “SUSTAINED RELEASE COMPOSITION OF RANOLAZINE” (Lupin Limited, priority 2009, published 2012).

Experiments:
[1] = in vivo

Plasma half-life [1]: relatively short | Solubility (low pH that occurs in the stomach): relatively high | Solubility in aqueous solutions (pH above about 6.5): relatively insoluble
Compound: COc1ccccc1OCC(O)CN1CCN(CC(=O)Nc2c(C)cccc2C)CC1 (racemic) [Ranolazine, (±)-N-(2,6-dimethylphenyl)-4-[2-hydroxy-3-(2-methoxyphenoxy)propyl]-1-piperazine-acetamide]
